Laboratory results reported in patent US20230210838A1, “METHODS FOR TREATING CANCER OR VON-HIPPEL LINDAU DISEASE USING A COMBINATION OF A HIF-2 ALPHA INHIBITOR AND LENVATINIB” (Merck Sharp & Dohme LLC, priority 2020, published 2023).
Where “and” joins values, the source holds several entries; their conditions need not be identical. Equal values may be shown once.

How the values were obtained:
[1] = test system: UMRC2 human VHL-deficient renal cell carcinoma xenograft; experiment: VHL-deficient renal cell carcinoma xenograft tumor model; type: in vivo; settings: for anti-tumor activity compared to the vehicle control group: Day 34, one-way ANOVA with Tukey's multiple comparisons; for Final CRs: complete tumor regressions at end of study; for Final CRs / Final PRs: 10 mice per group; for Final PRs: partial tumor regressions at end of study; for TGI: respective to Vehicle-treated animals at Day 34, MK-6482 3 mg/kg BID oral, Lenvatinib 10 mg/kg QD oral
Protocol: Prior to treatment initiation, female SCID Beige mice aged 7 weeks weighing between 18 to 21 grams were anesthetized and inoculated subcutaneously on the rear flank with single cell suspension of approximately 95% viable log-phase sub-confluent UMRC2 (5.0×10^6) cells in 0.1 mL of serum-free Dulbecco's Modified Eagle Medium (DMEM) to initiate tumor development. Treatment was initiated when the mean tumor volume of inoculated animals reached approximately 205 mm^3. Mice were pair-matched into 4 treatment groups consisting of 10 mice per group. Treatment groups consisted of: 1) 0.5% methylcellulose+0.5% Tween 80 (Vehicle); 2) MK-6482; 3) Lenvatinib; 4) MK-6482+Lenvatinib. Vehicle and MK-6482 were orally gavage-dosed twice daily (BID) at 3 mg/kg body weight. Lenvatinib was orally dosed once daily (QD) at 10 mg/kg body weight. Treatment began on Day 0 and completed on Day 34. —Caliper measurements of tumors and body weights were captured twice weekly. Statistical analysis was performed by one-way ANOVA with Tukey's multiple comparisons tests at the end of the study, Day 34.
CRs were defined as no observable tumor whereas PRs were tumors whose volume was lower than the original tumor size when treatment began.

[2] = FIH Phase 1 study of tolerability, safety, PK of MK-6482 in participants with advanced solid tumors; type: in vivo, human
Protocol: As of 6 Sep. […] 52 additional participants with advanced RCC were treated in an expansion cohort (Part 1B) at the clinical dose of 120 mg QD.

[3] = Phase 1 cross-over study of the effect of food on the PK of MK-6482 in healthy volunteers; type: in vivo, human; settings: single dose 120 mg, healthy female adult volunteers
[4] = Phase 2 open-label efficacy and safety study in VHL disease associated RCC; type: in vivo, human; settings: 120 mg QD, 61 participants with VHL disease associated RCC
Description: A Phase 2, open-label efficacy and safety study in participants with VHL disease associated RCC is ongoing. As of 6 Sep.

advanced RCC = experiment: FIH Phase 1 study, best response by RECIST v1.1 in previously treated advanced RCC; type: in vivo, human; settings: 120 mg QD, 55 participants with previously treated advanced RCC
Protocol: A FIH Phase 1 study designed to assess the tolerability, safety, PK, and PD properties of MK-6482 in participants with various advanced solid tumors is ongoing. As of 6 Sep. 2019 a total of 104 participants had been enrolled, including 43 participants with various advanced solid tumors in the dose-escalation portion (Part 1A) ranging from 20 to 240 mg QD and 120 mg BID. The MTD was not reached and 2 treatment-related DLTs were observed: 1 Grade 4 event of thrombocytopenia in the 240 mg QD cohort, and 1 Grade 3 event of hypoxia in the 120 mg BID cohort. The 120 mg QD dose was selected for further clinical development based on favorable PK, pharmacodynamic, and safety findings. 52 additional participants with advanced RCC were treated in an expansion cohort (Part 1B) at the clinical dose of 120 mg QD. […] In total, 55 participants with previously treated advanced RCC have been treated in this study with MK-6482 at 120 mg QD (3 patients in the dose-escalation portion of the study and 52 participants in the dose expansion portion of the study). Best response among these 55 participants included 11 participants (20%) with PR and 32 participants (58%) with SD as assessed by RECIST v1.1.

[5] = combined dose escalation and expansion cohorts

| SMILES | anti-tumor activity compared to the vehicle control group [1] | Final CRs [1] | Final PRs [1] | TGI [1] [%] | accumulation from Day 1 to Day 15 ([2]; 120 mg QD expansion cohort (Part 1B)) [fold] | treatment-related DLTs observed (number) ([2]; 1 Grade 4 thrombocytopenia in 240 mg QD cohort, 1 Grade 3 hypoxia in 120 mg BID cohort) | most common AEs (anemia, fatigue, dyspnea, nausea, peripheral edema), share of participants [2, 5] [%] | most common Grade 3 AEs (anemia and hypoxia), share of participants [2, 5] [%] | MTD ([2]; dose escalation (Part 1A) 20 to 240 mg QD and 120 mg BID) | Cmax ([2]; human, in vivo, 120 mg QD expansion cohort (Part 1B), Day 15, read-out: mean steady state Cmax) | half-life ([2]; human, in vivo, 120 mg QD expansion cohort (Part 1B), Day 15, read-out: mean steady state t1/2 (converted)) [min] | delay of time to peak MK-6482 exposure, median difference (Fed—Fasted) [3] [h] | most common adverse event (headache), incidence [3] [%] | effect of high fat, high calorie meal on extent of MK-6482 exposure ([3]; fed vs fasted) | lowering of maximum plasma MK-6482 concentration by high fat, high calorie meal ([3]; fed vs fasted) | most common AE of ≥Grade 3 toxicity (fatigue), share of participants [4] [%] | best response PR, number of participants (advanced RCC) [participants] | best response PR, share of participants (advanced RCC) [%] | best response SD, number of participants (advanced RCC) [participants] | best response SD, share of participants (advanced RCC) [%] |
| --- | --- | --- | --- | --- | --- | --- | --- | --- | --- | --- | --- | --- | --- | --- | --- | --- | --- | --- | --- | --- |
| COc1cc2nccc(Oc3ccc(NC(=O)NC4CC4)c(Cl)c3)c2cc1C(N)=O [Lenvatinib, 4-[3-chloro-4-(cyclopropylaminocarbonyl)aminophenoxy]-7-methoxy-6-quinolinecarboxamide] | significant anti-tumor activity | 0/10 PRs, 0/10 CRs | 0/10 PRs, 0/10 CRs | 83 | – | – | – | – | – | – | – | – | – | – | – | – | – | – | – | – |
| CS(=O)(=O)c1ccc(Oc2cc(F)cc(C#N)c2)c2c1[C@H](O)[C@H](F)[C@@H]2F [MK-6482, 3-[(1S,2S,3R)-2,3-difluoro-1-hydroxy-7-methylsulfonyl-indan-4-yl]oxy-5-fluoro-benzonitrile] | significant anti-tumor activity | 0/10 | 1/10 | 51 | 1.5 | 2 | ≥ 20 | ≥ 5 | not reached | 1790 ng/mL and 4.67 µM | 924 | 2 | 12.5 | did not affect | approximately 35% | ≥ 5 | 11 | 20 | 32 | 58 |
